Data reported in the supplement of paper PMC12137928.
Where a name gives a salt, the structure may show the parent alone.

System: HCT116
Settings: 72 h
In short: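 Four-parameter Hill fits gave IC50 and maximal efficacy. The data were CellTiter-Glo luminescence readings in HCT116 cells, normalized so that vehicle was 0% and positive control was -100%, with pattern correction afterwards.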

SMILES | IC50 cell viability (ICRF193 0 nM) | IC50 cell viability (ICRF193 200 nM)
CNC[C@H](O)c1ccc(O)c(O)c1 [Epinephrine] | > 45.8 µM | > 45.8 µM
O=C(O)Cc1ccccc1Nc1c(Cl)cccc1Cl [Diclofenac sodium] | > 45.8 µM | > 45.8 µM
NS(=O)(=O)c1cc2c(cc1Cl)NC(Cc1ccccc1)NS2(=O)=O (stereo unspecified) [Benzylhydrochlorothiazide] | > 45.8 µM | > 45.8 µM
CC(=O)OC1CC2CCC1(C)C2(C)C (stereo unspecified) [BORNYL ACETATE] | > 45.8 µM | > 45.8 µM
O=[N+]([O-])c1nccn1COC(CO)C(O)CO (stereo unspecified) [Doranidazole] | > 45.8 µM | > 45.8 µM
CC(=O)Oc1ccccc1C(=O)O [Aspirin] | > 45.8 µM | > 45.8 µM
CC(C(=O)O)c1cccc(Oc2ccccc2)c1 (stereo unspecified) [Fenoprofen calcium salt dihydrate] | > 45.8 µM | > 45.8 µM
Cc1onc(-c2ccccc2)c1C(=O)N[C@@H]1C(=O)N2[C@@H]1SC(C)(C)[C@@H]2C(=O)O [Oxacillin sodium] | > 45.8 µM | > 45.8 µM
CCCCCOC(=O)Nc1nc(=O)n([C@@H]2O[C@H](C)[C@@H](O)[C@H]2O)cc1F [Capecitabine] | > 45.8 µM | > 45.8 µM
C#CCN(C)[C@H](C)Cc1ccccc1 [Selegiline hydrochloride] | > 45.8 µM | > 45.8 µM
CC[C@H]1OC(=O)C[C@@H](O)[C@H](C)[C@@H](O[C@@H]2O[C@H](C)[C@@H](O)[C@H](N(C)C)[C@H]2O)[C@@H](CCN2C[C@H](C)C[C@H](C)C2)C[C@@H](C)C(=O)/C=C/C(C)=C/[C@@H]1CO[C@@H]1O[C@H](C)[C@@H](O)[C@@H](OC)[C@H]1OC [TILMICOSIN] | > 45.8 µM | > 45.8 µM
Nc1ccncc1 [4-Aminopyridine] | > 45.8 µM | > 45.8 µM
O=C1Cc2cc(CCN3CCN(c4nsc5ccccc45)CC3)c(Cl)cc2N1 [Ziprasidone] | > 45.8 µM | > 45.8 µM
CCOC(=O)c1ncn2c1CN(C)C(=O)c1cc(F)ccc1-2 [Flumazenil] | > 45.8 µM | > 45.8 µM
CCCCCCO[C@@H](C)c1cccc(-c2csc(NC(=O)c3cc(Cl)c(/C=C(\C)C(=O)O)c(Cl)c3)n2)c1OC [Lusutrombopag] | > 45.8 µM | > 45.8 µM
CC(C)(CO)[C@@H](O)C(=O)NCCCC(=O)O [Calcium hopantenate] | > 45.8 µM | > 45.8 µM
CCc1ccc(CCOc2ccc(CC3SC(=O)NC3=O)cc2)nc1 (stereo unspecified) [Pioglitazone hydrochloride] | > 45.8 µM | > 45.8 µM
CCCCCCCCCC(=O)O[C@H]1CC[C@H]2[C@@H]3CCC4=CC(=O)CC[C@]4(C)[C@H]3CC[C@]12C [Testosterone decanoate] | > 45.8 µM | > 45.8 µM
C=C[C@H]1CN2CC[C@H]1C[C@@H]2[C@@H](O)c1ccnc2ccc(OC)cc12 [Quinidine hydrochloride monohydrate] | > 45.8 µM | > 45.8 µM
CCOP(=O)(OCC)C(C)NC(=O)N(CCCl)N=O (stereo unspecified) [Fotemustine] | > 45.8 µM | > 45.8 µM
CCCCC[C@@H](O)[C@H]1C(=O)O[C@H](C)[C@@H](O)/C=C/C=C/C=C/C=C/C=C(\C)[C@@H](O)[C@H](O)[C@H](O)C[C@H](O)C[C@H](O)C[C@H](O)C[C@H](O)C[C@@H]1O [Pentamycin] | > 45.8 µM | > 45.8 µM
Cc1c(C(=O)O)c(O)cc2c1C(=O)c1c(O)c(C3OC(CO)C(O)C(O)C3O)c(O)c(O)c1C2=O (stereo unspecified) [Cochineal] | > 45.8 µM | > 45.8 µM
COc1cc(C(=O)NS(=O)(=O)c2ccccc2C)ccc1Cc1cn(C)c2ccc(NC(=O)OC3CCCC3)cc12 [Zafirlukast] | > 45.8 µM | > 45.8 µM
